Reference: article PMC7024302, “Ultrashort Cationic Lipopeptides–Effect of N-Terminal Amino Acid and Fatty Acid Type on Antimicrobial Activity and Hemolysis” (Molecules, 2020)
≈ marks a conversion by molar mass, not a printed value. Read-outs that look alike come from different tables or passages of the source. Residues, ends and D or L forms follow the SMILES beside them. *: point of attachment. Myristoyl = CCCCCCCCCCCCCC(=O)*; Acm = CC(=O)NC*

Tests used:
[1] = Determination of peptide hydrophobicity with RP-HPLC (adjusted retention time); format: physicochemical; conditions: for tR’: Table 3, adjusted retention time as hydrophobicity; for tR’ (adjusted retention time): Table 1 and b9, measure of hydrophobicity, RP-HPLC, Phenomenex Luna C18(2) 3.0 × 100 mm, 5 µm, linear 10–55% acetonitrile in water over 60 min, 0.5 mL/min, peptide 1 g/L; for ∆tR: tR’ of the lipopeptide minus tR’ of C10-RR-NH2 or C12-RR-NH2, same RP-HPLC conditions
Experimental: To determine peptide hydrophobicity, the Waters Alliance e2695 system with a Waters 2998 PDA Detector (software-Empower®3) was used. All analyses were carried out on a Phenomenex Luna C18(2) column (3.0 × 100 mm, 5 µm particle size, 100 Å pore size). The peptides were dissolved in water (0.1% TFA, v/v) to obtain a concentration of 1 g/L. UV detection at 214 nm was used, and aliquots (10 µL) were eluted with a linear 10–55% acetonitrile gradient in deionized water over 60 min at 25.0 ± 0.1 °C. The mobile phase flow rate was 0.5 mL/min. Both eluents contained 0.1% (v/v) of TFA. Each peptide sample was analyzed in triplicate.

S. aureus ATCC 25923 = format: cell-based, Staphylococcus aureus; conditions: ATCC 25923, 18 h
Source text: (§1) The Acinetobacter baumannii ATCC BAA-1605, Candida albicans ATCC 10231, Enterococcus faecium ATCC 700221, Klebsiella aerogenes ATCC 13048 (previously known as Enterobacter aerogenes), Klebsiella pneumoniae ATCC 700603, Pseudomonas aeruginosa ATCC 9027, Staphylococcus aureus ATCC 25923 and MRSA ATCC 33591, were acquired from the American Type Culture Collection (ATCC). Before running the tests, beads with cryo-protected microorganisms were transferred into fresh MHB (BioMaxima, Lublin, Poland) for bacteria or RPMI-1640 for fungi and incubated for 24 h at 37 °C. Then, the culture was seeded on the Mueller-Hinton agar (MHA) plates (BioMaxima, Lublin, Poland) for bacteria or Sabouraud dextrose agar (SDA) plates (BioMaxima, Lublin, Poland) for fungi and incubated as just mentioned. Cell densities for all assays were adjusted spectrophotometrically (Multiskan™ GO Microplate Spectrophotometer, Thermo Fisher Scientific, Vantaa, Finland) at 600 nm for bacteria and at 530 nm for fungi.
(§2) The MICs were determined by broth microdilution method according to the Clinical and Laboratory Standard Institute guidelines. For this purpose initial inoculums of bacteria (5 × 10^5 CFU/mL) in MHB (BioMaxima, Lublin, Poland) and fungi (2 × 10^3 CFU/mL) in RPMI-1640 with 2% D-glucose (Merck, Darmstadt, Germany) prepared with MOPS (pH 7.0 ± 0.1 at 25 °C; Merck, Darmstadt, Germany) were exposed to the ranging concentration of lipopeptides (0.5–256 µg/mL) and incubated at 37 °C for 18 h and 24 h respectively. The experiments were conducted on 96-well microtiter polystyrene plates (Kartell, Italy). The MIC was taken as the lowest peptide concentration at which a noticeable growth of microorganisms was inhibited. All experiments were conducted in triplicate.

[2] = system: S. aureus ATCC 33591 (MRSA); format: cell-based, Staphylococcus aureus; conditions: ATCC 33591, 18 h
Source text: as §1, §2

P. aeruginosa ATCC 9027 = format: cell-based, Pseudomonas aeruginosa; conditions: ATCC 9027, 18 h
Source text: as §1, §2

C. albicans ATCC 10231 = format: cell-based, Candida albicans
Source text: as §1, §2

[3] = system: human red blood cells (hRBCs); format: cell-based; conditions: red cells of human, 1 h
Experimental: The hemolysis assay was performed as described earlier according to the method of Avrahami and Shai. Fresh human red blood cells (hRBCs) with anticoagulant (EDTA) were rinsed three times with a PBS (Merck, Darmstadt, Germany) by centrifugation at 800× g for 10 min and resuspended in PBS. Lipopeptides were serially diluted on 96-well microtiter polystyrene plate and hRBCs were added to reach final volume of 100 µL. Peptide concentration ranged between 0.5 and 256 µg/mL and final hRBCs concentration was 4% (v/v). Controls for zero hemolysis (blank) and 100% hemolysis consisted of hRBCs suspended in PBS and 1% of Triton-X 100 (Merck, Darmstadt, Germany), respectively. The plate was incubated for 1 h at 37 °C and then centrifuged (800× g, 10 min, 4 °C). Subsequently, supernatant was […] to new microtiter plates and absorbance at 540 nm were measured. All experiments were conducted in triplicate. Protocol of the study received approval from the local Bioethics Committee at the Medical University of Gdańsk (NKBBN/262/2019).

E. faecium ATCC 700221 = format: cell-based, Enterococcus faecium; conditions: ATCC 700221, 18 h
Source text: as §1, §2

[4] = system: K. pneumoniae ATCC 700603; format: cell-based, Klebsiella pneumoniae; conditions: ATCC 700603, 18 h
Source text: as §1, §2

[5] = system: A. baumannii ATCC BAA-1605; format: cell-based, Acinetobacter baumannii; conditions: ATCC BAA-1605, 18 h
Source text: as §1, §2

K. aerogenes ATCC 13048 = format: cell-based, Klebsiella aerogenes; conditions: ATCC 13048, 18 h
Source text: as §1, §2

[6] = RP-HPLC C18, linear 10–55% acetonitrile over 60 min, 0.1% TFA, 25.0 °C, UV 214 nm, triplicate
[7] = 0.1% TFA, 25.0 °C, UV 214 nm, triplicate

Compound	tR’ [1, 6] [min]	MIC SA (S. aureus ATCC 25923)	MIC S [2]	MIC PA (P. aeruginosa ATCC 9027) [µg/mL]	MIC CA (C. albicans ATCC 10231; C. albicans ATCC 10231, RPMI-1640 with 2% D-glucose, MOPS pH 7.0, 2 × 10^3 CFU/mL, 0.5–256 µg/mL, 37 °C, 24 h, triplicate) [µg/mL]	HC50 [3]	MIC E1 (E. faecium ATCC 700221) [µg/mL]	MIC K [4]	MIC A [5] [µg/mL]	MIC E2 (K. aerogenes ATCC 13048)	MIC CA (C. albicans ATCC 10231; ATCC 10231, 24 h, pH 7) [µg/mL]	tR’ (adjusted retention time) [1, 7] [min]	∆tR [1] [min]	Adjusted retention time ([1]; Table 2, nC = carbon atoms in fatty acid chain, RP-HPLC C18, linear 10–55% acetonitrile over 60 min, 0.1% TFA, 25.0 °C, UV 214 nm, triplicate) [min]
CCCCCCCCCCCCCCCC(=O)N[C@@H](CCCNC(=N)N)C(=O)N[C@@H](CCCNC(=N)N)C(N)=O [compound 5, C16-RR-NH2, reference compound] (HELM PEPTIDE1{[CCCCCCCCCCCCCCCC(=O)[*:2]].R.R.[am]}$$$$V2.0)	46.51	8 µg/mL (≈ 14.1 µM)	8 µg/mL (≈ 14.1 µM)	16 (≈ 28.2 µM)	4 (≈ 7.04 µM)	22.91 (±1.18) µg/mL	8 (≈ 14.1 µM)	32 µg/mL (≈ 56.4 µM)	32 (≈ 56.4 µM)	32 µg/mL (≈ 56.4 µM)				
CCCCCCCCCCCCCCCCCC(=O)N[C@@H](CCCNC(=N)N)C(=O)N[C@@H](CCCNC(=N)N)C(N)=O [compound 6, C18-RR-NH2, reference compound] (HELM PEPTIDE1{[CCCCCCCCCCCCCCCCCC(=O)[*:2]].R.R.[am]}$$$$V2.0)	53.39	16 µg/mL (≈ 26.9 µM)	16 µg/mL (≈ 26.9 µM)	64 (≈ 107 µM)		25.19 (±0.67) µg/mL	8 (≈ 13.4 µM)	16 µg/mL (≈ 26.9 µM)	32 (≈ 53.7 µM)	16 µg/mL (≈ 26.9 µM)	4 (≈ 6.71 µM)			
CCCCCCCCCCCCCC(=O)N[C@@H](C)C(=O)N[C@@H](CCCNC(=N)N)C(=O)N[C@@H](CCCNC(=N)N)C(N)=O [compound 10, C14-ARR-NH2] (HELM PEPTIDE1{[CCCCCCCCCCCCCC(=O)[*:2]].A.R.R.[am]}$$$$V2.0)	40.92	8 µg/mL (≈ 13.1 µM)	16 µg/mL (≈ 26.2 µM)	32 (≈ 52.4 µM)		41.08 (±0.62) µg/mL	8 (≈ 13.1 µM)	256 µg/mL (≈ 419 µM)	32 (≈ 52.4 µM)	256 µg/mL (≈ 419 µM)	16 (≈ 26.2 µM)			
CCCCCCCCCCCCCC(=O)N[C@@H](CSCNC(C)=O)C(=O)N[C@@H](CCCNC(=N)N)C(=O)N[C@@H](CCCNC(=N)N)C(N)=O [compound 14, C14-C(Acm)RR-NH2] (Myristoyl-Cys(Acm)-Arg-Arg-NH2)	43.24	16 µg/mL (≈ 22.4 µM)	16 µg/mL (≈ 22.4 µM)	16 (≈ 22.4 µM)		39.72 (±1.25) µg/mL	8 (≈ 11.2 µM)	256 µg/mL (≈ 359 µM)	16 (≈ 22.4 µM)	256 µg/mL (≈ 359 µM)	8 (≈ 11.2 µM)			
CCCCCCCCCC(=O)N[C@@H](Cc1ccccc1)C(=O)N[C@@H](CCCNC(=N)N)C(=O)N[C@@H](CCCNC(=N)N)C(N)=O [compound 24, C10-FRR-NH2] (HELM PEPTIDE1{[CCCCCCCCCC(=O)[*:2]].F.R.R.[am]}$$$$V2.0)	34.68	16 (>16) µg/mL	16 (>16) µg/mL	32 (≈ 50.7 µM)		>256 µg/mL	32 (≈ 50.7 µM)	>256 (-) µg/mL	64 (≈ 101 µM)	>256 (-) µg/mL	64 (≈ 101 µM)	34.68	10.38	
CCCCCCCCCCCC(=O)N[C@@H](Cc1ccccc1)C(=O)N[C@@H](CCCNC(=N)N)C(=O)N[C@@H](CCCNC(=N)N)C(N)=O [compound 25, C12-FRR-NH2] (HELM PEPTIDE1{[CCCCCCCCCCCC(=O)[*:2]].F.R.R.[am]}$$$$V2.0)	41.45	4 µg/mL (≈ 6.07 µM)	8 µg/mL (≈ 12.1 µM)	8 (≈ 12.1 µM)		91.21 (±16.38) µg/mL	8 (≈ 12.1 µM)	256 µg/mL (≈ 389 µM)	64 (≈ 97.1 µM)	256 µg/mL (≈ 389 µM)	8 (≈ 12.1 µM)	41.45	8.87	
CCCCCCCCCCCCCC(=O)N[C@@H](Cc1ccccc1)C(=O)N[C@@H](CCCNC(=N)N)C(=O)N[C@@H](CCCNC(=N)N)C(N)=O [compound 26, C14-FRR-NH2] (HELM PEPTIDE1{[CCCCCCCCCCCCCC(=O)[*:2]].F.R.R.[am]}$$$$V2.0)	47.75	4 µg/mL (≈ 5.82 µM)	32 µg/mL (≈ 46.6 µM)	8 (≈ 11.6 µM)		39.09 (±1.18) µg/mL	16 (≈ 23.3 µM)	64 µg/mL (≈ 93.2 µM)	128 (≈ 186 µM)	64 µg/mL (≈ 93.2 µM)	2 (≈ 2.91 µM)			
CCCCCCCCCCCCCC(=O)NCC(=O)N[C@@H](CCCNC(=N)N)C(=O)N[C@@H](CCCNC(=N)N)C(N)=O [compound 30, C14-GRR-NH2]	40.53	8 µg/mL (≈ 13.4 µM)	8 µg/mL (≈ 13.4 µM)	32 (≈ 53.6 µM)		31.94 (±1.99) µg/mL	8 (≈ 13.4 µM)	256 µg/mL (≈ 429 µM)	64 (≈ 107 µM)	256 µg/mL (≈ 429 µM)	16 (≈ 26.8 µM)			
CCCCCCCCCCCCCC(=O)N[C@@H](Cc1c[nH]cn1)C(=O)N[C@@H](CCCNC(=N)N)C(=O)N[C@@H](CCCNC(=N)N)C(N)=O [compound 34, C14-HRR-NH2] (HELM PEPTIDE1{[CCCCCCCCCCCCCC(=O)[*:2]].H.R.R.[am]}$$$$V2.0)	35.80	16 µg/mL (≈ 23.6 µM)	16 µg/mL (≈ 23.6 µM)	64 (≈ 94.5 µM)		50.31 (±0.52) µg/mL	8 (≈ 11.8 µM)	256 µg/mL (≈ 378 µM)	128 (≈ 189 µM)	256 µg/mL (≈ 378 µM)	16 (≈ 23.6 µM)			
CCCCCCCCCCCC(=O)N[C@H](C(=O)N[C@@H](CCCNC(=N)N)C(=O)N[C@@H](CCCNC(=N)N)C(N)=O)[C@@H](C)CC [compound 37, C12-IRR-NH2] (HELM PEPTIDE1{[CCCCCCCCCCCC(=O)[*:2]].I.R.R.[am]}$$$$V2.0)	39.05	8 µg/mL (≈ 12.8 µM)	8 µg/mL (≈ 12.8 µM)	16 (≈ 25.6 µM)		120.40 (±1.55) µg/mL	8 (≈ 12.8 µM)	256 µg/mL (≈ 410 µM)	64 (≈ 102 µM)	256 µg/mL (≈ 410 µM)	16 (≈ 25.6 µM)			39.047
